Here are results for three compounds from patent US6927223B1, “Use of serotonin agents for adjunct therapy in the treatment of cancer” (priority 2000, dated 2005).

The test system of data set [1] is metastatic melanoma. As to conditions: single agent; cited from earlier work.
In data set [2] the test system is B16F10 melanoma cells. Particulars: cited from earlier work; for tumor lung colonization (wet weight of tumor aggregates) versus saline controls: fluoxetine 12, 16, 20 or 40 mg/m^2, amitriptyline 30, 60 or 75 mg/m^2, from 24 hours after i.v. inoculation; for median survival: tumor cells injected i.v., all groups.
Data set [3] has as its system A375 melanoma cells. The procedure:
(§1) Viability was assessed by the crystal violet assay. […] Values are mean±SE for three experiments. […] Values are for one experiment.
(§2) A375 and SKMel-28 cells were seeded at a density of 20,000 cells in one ml DMEM+10% FBS per well in 24 well plates and cultured for 24 hours. […] The culture plates were removed and the medium from each well was discarded. The cells were fixed with acetic acid:methanol (1:3) for one hour at room temperature. The fixed cells were washed with 80% methanol and stained with crystal violet (0.5%) for one hour. Crystal violet dye is taken up proportionately depending upon the number of cells that are adhered to the plate. Excess dye is removed by washing plates in running distilled water. After the plates were dry, the dye was solubilized in 10% acetic acid. Aliquots of solubilized dye from each well were transferred to a 96 well plate and the absorbance of the color was measured at 585 nm. The effects were compared relative to untreated controls.

The test system of data set [4] is A375 melanoma cells. As to conditions: stated jointly for B16BL6 and A375.
Data set [5] deals with 3T3 adipocytes. As to the kind of experiment: Lipid accumulation in adipocytes differentiated from NIH 3T3 fibroblasts, Oil Red-O staining. Type of data set: cell-based. Particulars: 5 μM and 10 μM, 10 days. The method, then:
The relative absorbance was calculated as the ratio of absorbance of each treatment to the absorbance of the nondifferentiated (Ndiff) cells.
After 10 days the lipid content was determined by staining the cells with Oil Red-O and determining the intensity of the red color in an uv spectrophotometer. Experiments were done in triplicate.

Data set [6] concerns B16BL6 melanoma cells. As to conditions: stated jointly for B16BL6 and A375.
For data set [7] the following is noted: 10 mg/kg/day injected i.v. or continuously infused subcutaneously via pump, mice; cited from earlier work.
Data set [8] concerns SKMel-28 cells. Nature of the data set: Viability of melanoma cells, crystal violet assay. Format: cell-based, human. Particulars: SKMel-28, preliminary data from one study. The method, then: as §1, §2
Data set [9] relates to B16BL6 melanoma. As to the kind of experiment: Established subcutaneous B16BL6 melanoma in water- or ethanol-drinking C57BL6 mice: tumor growth, metastasis, body weight, intake, body fat. Particulars: for Perigonadal Fat (mg ± SE): necropsy; for Carcass Fat (% ± SE): weight of lipid/dry carcass weight x 100. The procedure: In an effort to approximate the effect of SSRIs on melanomas in clinical situations, administration of the agents began after tumor growth was apparent.
Fourteen to 16 C57BL6 mice per group were inoculated s.c. with 1×10^6 B16BL6 melanoma cells. […] The test agent and saline control were injected daily subcutaneously (s.c.) into the gluteal region opposite from the site of tumor inoculation, approximately two hours before the dark cycle. […] At 21 days the animals were sacrificed.
Female C57/BL6 mice consumed either water or 20% w/v ethanol ad libitum for six weeks prior to inoculation with of melanoma cells. The mice were injected with 1×10^6 tumor cells subcutaneously (s.c.) into the dorsal hip.
Two weeks after inoculation, the animals were divided into four treatment groups: (1) water drinking or (2) ethanol drinking, both groups injected with saline control for seven days; (3) water drinking or (4) ethanol drinking. […] Tumor growth was measured with calipers on days 14, 16, 18, and 20. Mice were killed on day 21 and necropsied.
Perigonadal and carcass fat were determined. Body weight, food consumption, and fluid-consumption were measured continually throughout the experiment.
Perigonadal fat, a measure of body fat content, was removed at necropsy and weighed. Mice were then dehydrated at 60° C. until they reached constant weight. They were then pulverized in a Bel-Art Micro-Mill. The whole carcass was transferred to a soxhlet extractor and the lipid was extracted with chloroform:methanol (2:1) for 24 hours. The extraction cone containing the carcass was removed, air-dried to evaporate the chloroform and methanol, and then weighed. The difference in weight was the weight of carcass lipid. The percentage of carcass lipid was calculated as the weight of lipid/dry carcass weight×100.

Where [10] appears, read: Ethanol-drinking mice (20% w/v), 10 mg/kg/day s.c. for 7 days.
[11] abbreviates: Water-drinking mice, 10 mg/kg/day s.c. for 7 days.

Entries after “also recorded” stand apart in the source; their conditions may differ.

Turning to `CN(C)/N=N/c1[nH]cnc1C(N)=O` [DTIC, dimethyltriazenoimidazole carboxymide], the “share of cases of metastatic melanoma with partial remission” value in [1] is “about one-quarter”.

With `CN(C)CCC=C1c2ccccc2CCc2ccccc21` [amitriptyline], in data set [2], the “tumor lung colonization (wet weight of tumor aggregates) versus saline controls” value was “increased tumor lung colonization” and the median survival was 17 days.

Turning to `CNCCC(Oc1ccc(C(F)(F)F)cc1)c1ccccc1` (stereo not shown) [fluoxetine], the “cell viability at 16 μM” value in [3] (A375, 16 μM) is “almost all the cells were dead”. For the same compound, in data set [3] (A375, crystal violet), the “concentration at which drug toxicity is evident” value stood at 4 µM and the “concentration range of more pronounced toxicity” value fell in the range of 8 to 16 µM. In addition, the “time within which toxicity is exerted” value in data set [3] (A375 and SKMel-28, crystal violet) is at most 24 h. For the same compound, in data set [4], the “fluoxetine level that completely inhibited the incorporation of isotope” value was “about 30 uM”. In addition, in data set [5], the “lipid content of differentiated adipocytes” value is “increases lipid content”. Also, in data set [2], the “tumor lung colonization (wet weight of tumor aggregates) versus saline controls” value was “increased tumor lung colonization” and the median survival is 17 days. Besides, in [6], the “fluoxetine level that completely inhibited the incorporation of isotope” value is on record as “about 30 uM”. The approximate serum level in data set [7] was 100 to 280 ng/mL. In addition, the major toxicity range in data set [8] lay within 8 to 16 µM. In addition, the tumor growth rate result in data set [9] (10 mg/kg/day s.c. for 7 days, irrespective of water or ethanol consumption) is “significantly decreased”. The “decrease in wet weight of tumors at necropsy versus saline-injected mice” value in data set [9] (10 mg/kg/day s.c. for 7 days, necropsy day 21) is recorded as “greater than 2 fold”. In addition, in [9] (setting [10]), the “Perigonadal Fat (mg ± SE)” value is on record as 192 ± 53 mg and the “Carcass Fat (% ± SE)” value was 31.7 ± 2.3 %. Moreover, in data set [9] (setting [11]), the “Perigonadal Fat (mg ± SE)” value was determined as 53 ± 25 mg and the “Carcass Fat (% ± SE)” value was found to be 25.8 ± 1.4%. Moreover, in data set [9] (daily s.c. injection from day 14 to day 21, water- and ethanol-consuming mice), the tumor volume entry is recorded as “decreased tumor volume”. Further, in [9] (day 21), the “corrected body weight (total body weight minus tumor wet weight), test versus control animals” value is recorded as “nearly identical”. Further, in [9] (mouse, in vivo), the “toxicity of the effective dose” value is on record as “non toxic”. Further, in data set [9] (subcutaneous B16BL6 tumors, 10 mg/kg/day s.c. for 7 days, 10 mg/kg/day), the “number and frequency of metastases” value is given as “inhibit metastasis; also recorded: greatly reduced”. The food intake result in data set [9] (water-drinking mice, experimental period) is listed as “does not alter food intake”.
